In patent publication US7998965B2, “Glutamate aggrecanase inhibitors” (Wyeth LLC, priority 2005, dated 2011):
pIC50, pKi: −log10 of the molar value.

Assays:
Type in all cases: biochemical
[1] = target: T1, purified recombinant human Aggrecanase-1 (rAgg1) (Homo sapiens, UniProt O75173); assay: In vitro fluorescence screen for Aggrecanase-1 inhibitors; details: Table 1
T1 sequence (O75173 213-837): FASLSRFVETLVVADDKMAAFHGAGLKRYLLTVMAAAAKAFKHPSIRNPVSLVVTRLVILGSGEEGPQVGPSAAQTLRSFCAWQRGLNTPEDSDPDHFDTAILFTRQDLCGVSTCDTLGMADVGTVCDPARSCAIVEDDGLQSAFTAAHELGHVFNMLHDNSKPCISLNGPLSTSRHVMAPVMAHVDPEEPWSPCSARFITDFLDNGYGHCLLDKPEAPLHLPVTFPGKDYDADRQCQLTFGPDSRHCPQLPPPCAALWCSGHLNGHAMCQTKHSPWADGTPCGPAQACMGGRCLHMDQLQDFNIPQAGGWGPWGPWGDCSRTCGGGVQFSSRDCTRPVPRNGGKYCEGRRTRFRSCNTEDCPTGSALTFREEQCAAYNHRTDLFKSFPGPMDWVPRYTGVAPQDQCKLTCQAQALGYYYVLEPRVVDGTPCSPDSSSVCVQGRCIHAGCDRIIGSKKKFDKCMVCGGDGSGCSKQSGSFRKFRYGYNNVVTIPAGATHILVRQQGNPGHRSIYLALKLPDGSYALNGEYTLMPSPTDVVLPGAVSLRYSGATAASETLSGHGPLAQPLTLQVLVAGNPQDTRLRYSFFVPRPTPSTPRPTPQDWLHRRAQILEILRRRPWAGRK

[2] = target: T2, purified recombinant human Aggrecanase-2 (Ag2t-Phe628-Strep) (Homo sapiens, UniProt Q9UNA0); assay: In vitro fluorescence screen for Aggrecanase-2 inhibitors; details: Table 1; read-out: Agg 2 IC50
T2 construct: the form used is denoted as Ag2t-Phe628-Strep (MW=41,737)
T2 sequence (Q9UNA0 262-628): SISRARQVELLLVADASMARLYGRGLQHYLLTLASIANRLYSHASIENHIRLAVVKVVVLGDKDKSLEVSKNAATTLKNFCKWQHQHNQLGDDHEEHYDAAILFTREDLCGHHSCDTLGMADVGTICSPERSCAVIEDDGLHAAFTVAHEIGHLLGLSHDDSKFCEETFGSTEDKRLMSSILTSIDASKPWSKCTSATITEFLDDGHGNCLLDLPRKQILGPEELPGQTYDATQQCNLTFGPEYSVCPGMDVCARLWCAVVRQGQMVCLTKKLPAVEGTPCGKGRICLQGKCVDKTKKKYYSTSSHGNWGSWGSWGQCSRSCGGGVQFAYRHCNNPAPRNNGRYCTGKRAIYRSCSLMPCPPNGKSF

[3] = target: T3, recombinant human catalytic domain of MMP-14 (Homo sapiens, UniProt P50281); assay: In vitro fluorescence assay of MMP-14 activity; details: Table 1; unit inferred
T3 construct: 177 amino acids corresponding to Tyr89-Gly265 of mature human enzyme; purchased Chemicon International, Inc. CC1041

MMP-1 = target: T4, MMP-1 (Homo sapiens, UniProt P03956); assay: MMP-1 of Table 1; details: unit inferred
T4 sequence (P03956 100-469): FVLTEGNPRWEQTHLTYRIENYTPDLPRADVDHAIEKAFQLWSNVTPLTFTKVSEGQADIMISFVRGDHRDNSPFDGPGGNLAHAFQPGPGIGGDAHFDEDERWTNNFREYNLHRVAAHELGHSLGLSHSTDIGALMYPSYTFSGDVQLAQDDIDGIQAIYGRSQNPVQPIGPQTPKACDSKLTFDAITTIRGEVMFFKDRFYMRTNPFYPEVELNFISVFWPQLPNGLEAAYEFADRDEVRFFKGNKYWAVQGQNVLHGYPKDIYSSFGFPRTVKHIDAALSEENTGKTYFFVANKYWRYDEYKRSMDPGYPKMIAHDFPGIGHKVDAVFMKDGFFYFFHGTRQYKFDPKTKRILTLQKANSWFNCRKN

CC(C)(Cc1ccc(F)cc1)NC(=O)[C@H](CCC(=O)O)NC(=O)c1ccc(-c2ccccc2)cc1 [Example 8OO, N^2-(1,1′-biphenyl-4-ylcarbonyl)-N^1-[2-(4-fluorophenyl)-1,1-dimethylethyl]-L-α-glutamine]
pKi ([1]; enzyme not given, column follows Agg1 IC50, read-out: Ki): 8.22
pIC50 ([1]; read-out: Agg1 IC50): > 7.52
pIC50 [2]: 7.36
pIC50 [3]: < 3.70
pIC50 (MMP-1): < 3.70
